Experimental data reported in article PMC4850295, “Using a Genetically Encoded Sensor to Identify Inhibitors of Toxoplasma gondii Ca^2+ Signaling” (The Journal of Biological Chemistry, 2016).
Several values for one entry are separate records, joined by “and”; a condition that tells them apart may be missing. Equal entries are not always repeated.

What follows are compounds tested on T1, GCaMP5-expressing T. gondii. Settings: 100 uM zaprinast stimulation, 10 min pretreatment, mean of two replicates, 0.23 h, 10 µM.
T1 construct: whole extracellular parasites expressing GCaMP5 Ca2+ sensor
Parameters: species or system GCaMP5-expressing Toxoplasma gondii, extracellular; GCaMP5 fluorescence (cytosolic Ca2+) after 100 uM zaprinast in compound-pretreated extracellular parasites, background-subtracted, relative to zaprinast alone
Description: GCaMP5-expressing parasites were suspended in Ringer's solution at 4 × 10^7 parasites/ml, and 50 μl of parasites were applied to each well of a 96-well plate (Costar, catalog no. 3631). […] Parasites were then treated with 100 μM zaprinast or 0.1% DMSO as a vehicle control and incubated at 37 °C with 5% CO2 for an additional 4 min before measuring fluorescence with excitation and emission wavelengths of 485 and 525 nm, respectively, on a SpectraMax M3 (Molecular Devices). Basal fluorescence, measured from untreated parasites, was subtracted from all values, and results were expressed as -fold change from parasites treated only with zaprinast. Z′ factors were determined from (i) parasites treated with zaprinast versus untreated parasites and (ii) parasites treated with a final concentration of 1 μM Cpd2 or a vehicle control followed by zaprinast, using the formula, Z′ = 1 − 3(σp + σn)/(|μp − μn|), where σp and σn indicate S.D. values of positive and negative controls, and μp and μn indicate the means of positive and negative controls, respectively. […] We predicted that the zaprinast response measured in GCaMP5-expressing parasites could form the basis for a phenotypic screen. Such a screen would benefit from the known importance of Ca^2+ signaling in parasite biology along with the reported success rate of cell-based phenotypic assays. We designed a screen wherein extracellular GCaMP5-expressing parasites were pretreated with compounds for 10 min before stimulation with zaprinast, and parasite fluorescence was measured 4 min later. We expected that compounds that interfered with the zaprinast response would reduce fluorescence. We calculated a Z′-factor for this screen to determine its dynamic range and suitability to high throughput screening. To do so, we compared zaprinast-treated parasites to untreated parasites or those pretreated with the PKG inhibitor Compound 2 (Cpd2) ([55]). […] We obtained the compound libraries published kinase inhibitor sets PKIS1 ([57]) and PKIS2 (unpublished), from GlaxoSmithKline and applied our phenotypic screen to the 823 ATP mimetics represented in these collections (Fig. 2B and supplemental Table S1). The compounds were screened at a single 10 μM dose with two biological replicates.

Compound	fold change in fluorescence relative to zaprinast alone
Fc1ccc(-c2nc3n(c2-c2ccncc2)CCS3)cc1 [GI98581X]	0.7657 and 1.237
CCn1c(-c2nonc2N)nc2c(-c3ccccc3)ncc(OCCCN)c21 [GSK260205A]	0.1513

Same assay, conditions: 100 uM zaprinast stimulation; 10 min pretreatment; mean of two replicates; 0.23 h

Compound	fold change in fluorescence relative to zaprinast alone
Nc1ncnc2c1ncn2-c1ccc(Cl)cc1 [AH2635]	1.022
c1ccc(-c2cnc3nccnn23)cc1 [AH20685XX]	1.296
COc1cc2ncnc(Nc3cccc(Br)c3)c2cc1OC [GI230329A]	1.268
COc1ccc2ncnc(Nc3ccc(OCc4ccccc4)cc3)c2c1 [GI261520A]	0.7394
COc1cc2ncnc(Nc3ccc(OCc4ccccc4Br)c(Cl)c3)c2cc1OC [GI261590A]	1.09
COc1cc2nccc(Nc3ccc(Oc4ccccc4)cc3)c2cc1OC [GI261656A]	0.5416
O=C1Nc2ccccc2C1=C1CCc2cc(O)ccc21 [GR105659X]	1.22
c1ccc(Cc2nc3ccc(Nc4ncnc5ccccc45)cc3[nH]2)cc1 [GR269666A]	1.257
Clc1cc(Cl)cc(Nc2ccnc(Nc3cc(Cl)cc(Cl)c3)n2)c1 [GSK175726A]	0.5192
CC1=C(C(=O)Nc2ccc3[nH]ncc3c2)C(c2ccc(F)cc2)NC(=O)N1 (centres unmarked) [GSK180736A]	0.8811
CN(C)C(=O)O[C@H]1CN[C@H](C#Cc2cc3ncnc(Nc4ccc(OCc5cccc(F)c5)c(Cl)c4)c3s2)C1 [GSK182497A]	1.183
Cc1ccc(-c2nc(Nc3ccncc3)c3ccccc3n2)s1 [GSK189015A]	0.1154
CCNC(=O)O[C@H]1CN[C@H](C#Cc2cc3ncnc(Nc4ccc(OCc5cccc(F)c5)c(Cl)c4)c3s2)C1 [GSK192082A]	1.213
O=C(Nc1cccc(-c2nn3ncccc3c2-c2ccnc(Nc3ccccc3)n2)c1)c1c(F)cccc1F [GSK198271A]	1.278
O=C(O[C@H]1CN[C@H](C#Cc2cc3ncnc(Nc4ccc5c(cnn5Cc5ccccc5)c4)c3s2)C1)N1CCOCC1 [GSK200398A]	1.169
COc1cc2ncn(-c3cc(OCC4CCCCC4)c(C(N)=O)s3)c2cc1OC [GSK204559A]	1.336
COc1cc2ncn(-c3cc(OCCc4ccccc4)c(C(N)=O)s3)c2cc1OC [GSK204925A]	0.9795
COc1cc2c(Nc3cccc(NC(=O)c4ccccc4)c3)ncnc2cc1OCCCN1CCOCC1 [GSK223810A]	1.471
COc1cc2ncn(-c3cc(O[C@@H](C)c4ccccc4Cl)c(C(N)=O)s3)c2cc1OC [GSK237700A]	1.147
COc1cc2ncn(-c3cc(O[C@H](C)c4ccccc4Cl)c(C(N)=O)s3)c2cc1OC [GSK237701A]	0.7907
CN(C)C(=O)O[C@@H]1CN[C@@H](C#Cc2cc3ncnc(Nc4ccc(OCc5cccc(F)c5)c(Cl)c4)c3s2)C1 [GSK238063A]	1.133
O=C(O[C@H]1CN[C@H](C#Cc2cc3ncnc(Nc4ccc(Cc5ccccc5)cc4)c3s2)C1)N1CCOCC1 [GSK238583A]	1.249
Cc1cccc(-c2nc(C)cc(Nc3ccncc3)n2)n1 [GSK257997A]	0.832
CCn1c(-c2nonc2N)nc2cnc(Oc3cccc(NC(=O)c4ccc(OCCN5CCOCC5)cc4)c3)cc21 [GSK269962B]	1.303
CC1=C(C(=O)Nc2ccc3[nH]ncc3c2)C(c2ccc3ccccc3c2)CC(=O)N1 (centres unmarked) [GSK270822A]	1.167
O=C(Nc1cccc(-c2nn3ccccc3c2-c2ccnc(Nc3cccc(C(F)(F)F)c3)n2)c1)c1c(F)cccc1F [GSK292658A]	1.154
CC1=C(C(=O)Nc2ccc3[nH]ncc3c2)C(c2ccc(Cl)c(Cl)c2)CC(=O)N1 (centres unmarked) [GSK299115A]	1.214

Compound	fold change in fluorescence relative to zaprinast alone
O=C(Nc1cccc(-c2nn3ncccc3c2-c2ccnc(Nc3cccc(C(F)(F)F)c3)n2)c1)c1c(F)cccc1F [GSK299495A]	1.22
CS(=O)(=O)CCNCc1cc(-c2cc3c(Nc4ccc(OCc5cccc(F)c5)c(Cl)c4)ncnc3s2)cs1 [GSK300014A]	1.033
NC(=O)c1cc(-c2ccccc2)cc2c(C3CCNCC3)c[nH]c12 [GSK301362A]	1.06
O=S(=O)(c1cccc(F)c1)c1ccc(Nc2ncnc3cc(Br)sc23)cc1Cl [GSK306886A]	1.114
O=C(Nc1cccc(-c2nn3ncccc3c2-c2ccnc(Nc3cccnc3)n2)c1)c1c(F)cccc1F [GSK312879A]	1.048
COc1cc2ncn(-c3cc(OCc4cccs4)c(C(N)=O)s3)c2cc1OC [GSK312948A]	1.205
COc1ccc2ncn(-c3cc(O[C@H](C)c4ccccc4C(F)(F)F)c(C(N)=O)s3)c2c1 [GSK317315A]	0.7483
CC1=C(C(=O)Nc2ccc3[nH]ncc3c2)C(c2ccc(F)cc2)N=C(c2ccc(C(F)(F)F)nc2)N1 (centres unmarked) [GSK317354A]	1.324
COc1cc2ncn(-c3cc(OCc4ccccc4S(C)(=O)=O)c(C#N)s3)c2cc1OC [GSK319347A]	1.184
COc1cc(Nc2nccc(-c3c(-c4cccc(NC(=O)c5c(F)cccc5F)c4)nn4ccccc34)n2)cc(OC)c1OC [GSK323521A]	1.412
CS(=O)(=O)Cc1ccc(Nc2nccc(-c3c(-c4cccc(NC(=O)c5c(F)cccc5F)c4)nn4ccccc34)n2)cc1 [GSK323543A]	1.565
CCS(=O)(=O)c1ccc(OC)c(Nc2nccc(-c3c(-c4cccc(NC(=O)c5c(F)cccc5F)c4)nn4ncccc34)n2)c1 [GSK326180A]	1.656
COc1cc(Nc2nccc(-c3c(-c4cccc(NC(=O)c5c(F)cccc5F)c4)nn4ncccc34)n2)cc(OC)c1OC [GSK327238A]	1.28
NS(=O)(=O)CCc1cccc(Nc2nccc(-c3c(-c4cccc(NC(=O)c5c(F)cccc5F)c4)nn4ccccc34)n2)c1 [GSK336735A]	1.201
O=C(Nc1cccc(-c2nn3ccccc3c2-c2ccnc(Nc3cccc(F)c3)n2)c1)c1c(F)ccc(F)c1Cl [GSK357952A]	1.061
Cc1ccc(F)c(C(=O)Nc2cccc(-c3nn4ccccc4c3-c3ccnc(Nc4cccc(F)c4)n3)c2)c1F [GSK361061A]	0.9289
COc1cccc(OC)c1C(=O)Nc1cccc(-c2nn3ccccc3c2-c2ccnc(Nc3cccc(F)c3)n2)c1 [GSK361065A]	0.9782
COc1ccccc1CNC(=O)c1cc(C(=O)c2ccccc2C)c[nH]1 [GSK364507A]	1.353
NS(=O)(=O)c1cccc(N=Cc2c(O)[nH]c3ccc(S(=O)(=O)Cc4c(Cl)cccc4Cl)cc23)c1 [GSK398099A]	1.056
CC1=C(C(=O)Nc2cc3cn[nH]c3cc2F)C(c2ccc(C(F)(F)F)cc2)CC(=O)N1 (centres unmarked) [GSK429286A]	1.046
COc1cc2ncn(-c3cc(OCc4sccc4Cl)c(C(N)=O)s3)c2cc1OC [GSK448459A]	1.439
CC1=C(C(=O)Nc2ccc3[nH]nc(C)c3c2)C(c2ccc(C(F)(F)F)cc2)CC(=O)N1 (centres unmarked) [GSK466314A]	1.189
CC1=C(C(=O)Nc2cc(Cl)c3[nH]ncc3c2)C(c2ccc(C(F)(F)F)cc2)CC(=O)N1 (centres unmarked) [GSK466317A]	1.01
C[C@@H](Oc1cc(-n2cnc3cc(-c4ccncc4)ccc32)sc1C(N)=O)c1ccccc1Cl [GSK479719A]	1.296
C[C@@H](Oc1cc(-n2cnc3ccc(-c4ccncc4)cc32)sc1C(N)=O)c1ccccc1Cl [GSK483724A]	1.04
CCn1c(-c2nonc2N)nc2c(C#CC(C)(C)O)ncc(OCCCCN)c21 [GSK507274A]	1.063
Cc1[nH]nc2ccc(-c3cc(OC[C@@H](N)Cc4ccccc4)cnc3-c3ccoc3)cc12 [GSK507358A]	0.7404
